Where two headings read alike, the source gives them in different places.
How the values were obtained:
ACE-2 [1] = target: ACE-2 (Rattus norvegicus, UniProt Q5EGZ1); assay: ACE-2 Competitive Substrate Assay, rat ACE-2; type: biochemical; conditions: Ki class, compounds tested in 5% DMSO
Experimental: ACE-2 enzymatic activity was assayed in microtitre plates by the following procedure. The ACE-2 assay buffer used contained 50 mM MES (Boehringer-Mannheim), 300 mM NaCl (Sigma) and 0.01% Brij-35 (Pierce Chemical Co.) at pH 6.5.
Reactions were mixed and incubated at 25° C.
The activity of the test compounds was investigated using the procedure outlined above. The compounds were tested in 5% DMSO. Enzyme activity was measured at 12 compound concentrations.

ACE (Sigma, A2580) = target: T1, ACE (Sigma, A2580) (Sus scrofa, UniProt F1RRW5); assay: ACE enzymatic activity assay; type: biochemical, porcine; conditions: Ki class, compounds tested in 5% DMSO
T1 construct: ACE from porcine kidney; purchased Sigma A2580; host or cells: porcine kidney
T1 sequence (F1RRW5 34-1309): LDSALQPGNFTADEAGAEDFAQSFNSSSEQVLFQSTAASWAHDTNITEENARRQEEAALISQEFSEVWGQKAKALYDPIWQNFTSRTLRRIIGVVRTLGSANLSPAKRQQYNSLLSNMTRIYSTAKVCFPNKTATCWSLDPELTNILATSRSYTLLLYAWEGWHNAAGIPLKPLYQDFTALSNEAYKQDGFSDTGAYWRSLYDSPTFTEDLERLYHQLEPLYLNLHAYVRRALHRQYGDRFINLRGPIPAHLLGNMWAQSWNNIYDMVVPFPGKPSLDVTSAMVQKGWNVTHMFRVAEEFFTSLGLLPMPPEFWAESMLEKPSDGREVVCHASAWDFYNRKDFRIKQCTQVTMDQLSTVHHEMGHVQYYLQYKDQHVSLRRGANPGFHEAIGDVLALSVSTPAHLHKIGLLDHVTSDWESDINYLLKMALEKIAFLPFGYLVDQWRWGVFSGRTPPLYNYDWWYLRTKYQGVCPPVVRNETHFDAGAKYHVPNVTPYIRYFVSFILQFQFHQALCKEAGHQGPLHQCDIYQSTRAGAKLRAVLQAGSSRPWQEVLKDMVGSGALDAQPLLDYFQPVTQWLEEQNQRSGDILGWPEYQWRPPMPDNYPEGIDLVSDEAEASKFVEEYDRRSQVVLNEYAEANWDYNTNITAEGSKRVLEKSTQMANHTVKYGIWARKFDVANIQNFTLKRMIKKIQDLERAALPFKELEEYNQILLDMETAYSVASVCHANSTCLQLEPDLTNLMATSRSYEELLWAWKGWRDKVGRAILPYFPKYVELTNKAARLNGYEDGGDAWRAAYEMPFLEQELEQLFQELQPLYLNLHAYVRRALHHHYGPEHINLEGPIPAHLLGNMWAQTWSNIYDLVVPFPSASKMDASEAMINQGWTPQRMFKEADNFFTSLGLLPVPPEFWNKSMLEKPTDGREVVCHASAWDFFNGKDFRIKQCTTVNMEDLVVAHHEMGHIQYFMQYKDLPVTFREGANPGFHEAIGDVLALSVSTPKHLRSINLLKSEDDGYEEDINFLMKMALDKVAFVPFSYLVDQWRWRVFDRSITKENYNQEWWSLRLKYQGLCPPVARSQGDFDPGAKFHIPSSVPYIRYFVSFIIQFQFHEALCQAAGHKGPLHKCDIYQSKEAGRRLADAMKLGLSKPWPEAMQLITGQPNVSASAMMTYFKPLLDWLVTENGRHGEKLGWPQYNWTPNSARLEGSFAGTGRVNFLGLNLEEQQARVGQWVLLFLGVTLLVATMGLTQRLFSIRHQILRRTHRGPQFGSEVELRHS
Procedure, shortened: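 ACE (1 nM final) in 50 mM HEPES, 300 mM NaCl, 0.01% Brij-35, pH 7.5, with compound in 5% DMSO at 12 concentrations, 25 °C. Substrate cleavage run ~30 min, stopped with EDTA; fluorescence read at excitation 320 nm, emission 405 nm.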

Carboxypeptidase A = target: T2, Carboxypeptidase A (Bos taurus, UniProt P00730); assay: Carboxypeptidase A activity assay; type: biochemical; conditions: Ki class, compounds tested in 5% DMSO
T2 sequence (P00730 111-419): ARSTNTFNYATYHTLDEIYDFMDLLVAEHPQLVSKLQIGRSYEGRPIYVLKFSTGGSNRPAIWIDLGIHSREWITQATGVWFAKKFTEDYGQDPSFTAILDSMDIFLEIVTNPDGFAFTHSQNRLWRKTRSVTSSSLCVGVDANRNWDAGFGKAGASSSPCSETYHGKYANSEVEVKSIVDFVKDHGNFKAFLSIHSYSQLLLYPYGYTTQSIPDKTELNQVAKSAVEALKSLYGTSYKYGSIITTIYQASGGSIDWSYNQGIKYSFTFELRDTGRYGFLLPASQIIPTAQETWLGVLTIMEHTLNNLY
Procedure, shortened: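 Bovine carboxypeptidase A activity followed at 328 nm in 5% DMSO, reaction stopped with EDTA. Activity measured at 12 compound concentrations. Ki derived from apparent Ki as Ki=Kiapp/(1+[S]/Km).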

ACE-2 [2] = target: T3, ACE-2 (Homo sapiens, UniProt Q9BYF1); assay: ACE-2 Competitive Substrate Assay (ACS Assay); type: biochemical; conditions: for Ki: Ki class, compounds tested in 5% DMSO, read-out: Human ACE-2 Activity
T3 construct: a stop codon inserted after the serine immediately preceding the transmembrane domain; made in house; host or cells: CHO K1 cells (transient transfection, purified from conditioned medium)
T3 sequence (Q9BYF1 18-740 limits assumed): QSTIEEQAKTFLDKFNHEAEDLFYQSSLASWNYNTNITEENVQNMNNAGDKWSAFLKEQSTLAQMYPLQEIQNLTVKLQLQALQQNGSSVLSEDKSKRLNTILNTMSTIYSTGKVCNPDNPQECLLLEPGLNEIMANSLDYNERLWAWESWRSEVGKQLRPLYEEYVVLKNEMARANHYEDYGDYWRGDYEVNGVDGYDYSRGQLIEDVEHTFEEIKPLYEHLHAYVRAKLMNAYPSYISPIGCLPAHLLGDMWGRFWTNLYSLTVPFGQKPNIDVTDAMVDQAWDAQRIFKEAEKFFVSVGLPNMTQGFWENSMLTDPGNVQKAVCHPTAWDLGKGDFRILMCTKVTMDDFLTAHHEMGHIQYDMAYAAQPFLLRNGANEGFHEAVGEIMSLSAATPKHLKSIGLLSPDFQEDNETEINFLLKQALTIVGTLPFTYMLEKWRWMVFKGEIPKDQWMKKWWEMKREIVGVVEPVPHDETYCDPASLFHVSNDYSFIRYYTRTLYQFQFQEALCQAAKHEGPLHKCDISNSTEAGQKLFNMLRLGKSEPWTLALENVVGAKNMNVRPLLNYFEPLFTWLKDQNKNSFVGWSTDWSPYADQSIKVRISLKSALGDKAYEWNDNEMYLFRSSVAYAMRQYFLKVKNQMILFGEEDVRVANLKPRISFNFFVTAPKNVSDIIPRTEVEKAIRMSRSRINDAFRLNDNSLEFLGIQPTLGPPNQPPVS

Chain of ACE-2 (Rattus norvegicus, UniProt Q5EGZ1) (Q5EGZ1 18-805): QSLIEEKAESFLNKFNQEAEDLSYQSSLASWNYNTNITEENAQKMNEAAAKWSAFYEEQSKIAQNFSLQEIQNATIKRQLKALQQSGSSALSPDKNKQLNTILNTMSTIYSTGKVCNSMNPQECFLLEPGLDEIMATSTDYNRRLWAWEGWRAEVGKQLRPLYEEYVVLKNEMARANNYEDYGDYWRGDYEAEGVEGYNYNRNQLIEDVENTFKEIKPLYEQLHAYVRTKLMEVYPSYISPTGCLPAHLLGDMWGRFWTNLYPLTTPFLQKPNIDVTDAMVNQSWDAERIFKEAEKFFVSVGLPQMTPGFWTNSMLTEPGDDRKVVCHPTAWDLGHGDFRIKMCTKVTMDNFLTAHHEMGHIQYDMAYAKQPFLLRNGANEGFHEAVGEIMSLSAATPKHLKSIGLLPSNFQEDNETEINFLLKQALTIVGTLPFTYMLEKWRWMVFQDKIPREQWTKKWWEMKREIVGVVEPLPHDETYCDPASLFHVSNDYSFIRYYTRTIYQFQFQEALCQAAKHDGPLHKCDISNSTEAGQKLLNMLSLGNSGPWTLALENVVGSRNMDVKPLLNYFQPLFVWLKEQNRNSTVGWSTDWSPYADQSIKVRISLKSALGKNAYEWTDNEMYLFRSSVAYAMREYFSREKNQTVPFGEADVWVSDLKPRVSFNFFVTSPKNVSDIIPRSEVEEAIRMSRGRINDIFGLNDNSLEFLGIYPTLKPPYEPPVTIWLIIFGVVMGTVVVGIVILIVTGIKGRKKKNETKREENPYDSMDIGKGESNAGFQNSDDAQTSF

| SMILES | Ki (ACE-2 [1]; 12 concentrations) [nM] | Ki (ACE (Sigma, A2580); 12 concentrations) [nM] | Ki (Carboxypeptidase A; 12 concentrations) [nM] | Ki (ACE-2 [2]; 12 concentrations) [nM] | Ki (ACE-2 [1]; 12 compound concentrations) [nM] | Ki (ACE (Sigma, A2580); 12 compound concentrations) [nM] | Ki (Carboxypeptidase A; 12 compound concentrations) [nM] | Ki (ACE-2 [2]; 12 compound concentrations, Ki=Kiapp/(1+[S]/Km)) [nM] | relative activity of the diastereomers EZ and FA (ACE-2 [2]; assay not given) |
| --- | --- | --- | --- | --- | --- | --- | --- | --- | --- |
| CC(C)CC(N[C@@H](Cc1cncn1Cc1ccc(Cl)cc1)C(=O)O)C(=O)O (single isomer, unassigned) [GM, 2-[1-Carboxy-2-[3-(4-chloro-benzyl)-3H-imidazol-4-yl]-ethylamino]4-methyl-pentanoic acid] | < 100 | > 50000 | 10000 to 50000 | < 100 |  |  |  |  |  |
| CC(C)CC(N[C@H](CC(=O)O)Cc1ccco1)C(=O)O (some centres unmarked) [EH, 2-(1-Carboxymethyl-2-furan-2-yl-ethylamino)-4-methyl-pentanoic acid] | > 500 | > 50000 | > 50000 | > 500 |  |  |  |  |  |
| CC(C)CC(N[C@@H](Cc1cncn1COCc1ccccc1)C(=O)O)C(=O)O (single isomer, unassigned) [FH, 2-[2-(3-Benzyloxymethyl-3H-imidazol-4-yl)-1-carboxy-ethylamino]-4-methyl-pentanoic acid] | > 500 | > 50000 | > 50000 | > 500 |  |  |  |  |  |
| O=C(O)C(Cc1ccc(O)cc1)N[C@@H](Cc1c[nH]cn1)C(=O)O (single isomer, unassigned) [DN, 2-[1-Carboxy-2-(4-hydroxy-phenyl)-ethylamino]-3-(1H-imidazol-4-yl)-propionic acid] | > 500 | > 50000 | > 50000 | > 500 |  |  |  |  |  |
| CC(C)C[C@H](NC(CN(C)c1ccccc1)C(=O)O)C(=O)O (some centres unmarked) [AP, 2-[1-Carboxy-2-(methyl-phenyl-amino)-ethylamino]-4-methyl-pentanoic acid] | 100 to 500 | > 50000 | 10000 to 50000 | > 500 |  |  |  |  |  |
| CC(C)CC(N[C@@H](Cc1cncn1Cc1ccc(Cl)c(Cl)c1)C(=O)O)C(=O)O (single isomer, unassigned) [GW] |  |  |  |  | < 100 | 10000 to 50000 | 10000 to 50000 | < 100 |  |
| O=C(O)[C@H](CCc1ccccc1)N[C@@H](CC1CC1)C(=O)O [CL, 2-(1-Carboxy-2-cyclopropyl-ethylamino)-4-phenyl-butync acid] | 100 to 500 | > 50000 | > 50000 | > 500 |  |  |  |  |  |
| CC(C)CC(N[C@H](Cc1cccs1)C(=O)O)C(=O)O (stereo in doubt) [CP, 2-(1-Carboxy-2-thiophen-2-yl-ethylamino)-4-methyl-pentanoic acid] | > 500 | > 50000 | 10000 to 50000 | > 500 |  |  |  |  |  |
| CC(C)CC(NC(Cc1nccs1)C(=O)O)C(=O)O (centres unmarked) [CF, 2-(1-Carboxy-2-thiazol-2-yl-ethylamino)-4-methyl-pentanoic acid] | 100 to 500 | > 50000 | > 50000 | > 500 |  |  |  |  |  |
| CCCCC(N[C@@H](Cc1cncn1Cc1ccccc1)C(=O)O)C(=O)O (single isomer, unassigned) [FY, 2-[2-(3H-Benzyl-3-imidazol-4-yl)-1-carboxy-ethylamino]-hexanoicacid] | < 100 | > 50000 | > 50000 | > 500 |  |  |  |  |  |
| CC(C)(C)C[C@H](N[C@H](CCc1ccccc1)C(=O)O)C(=O)O [DD, 2-(1-Carboxy-3-phenyl-propylamino)-4,4-dimethylpentanoic acid] | > 500 | > 50000 | > 50000 | > 500 |  |  |  |  |  |
| CCCCC(N[C@@H](Cc1c[nH]cn1)C(=O)O)C(=O)O (single isomer, unassigned) [ED, 2-[1-Carboxy-2-(1H-imidazol-4-yl)-ethylamino]hexanoic acid] | 100 to 500 | > 50000 | > 50000 | > 500 |  |  |  |  |  |
| CC(C)CC(N[C@@H](Cc1cncn1Cc1ccccc1)C(=O)O)C(=O)O (single isomer, unassigned) [EZ, 2-[2-(3-Benzyl-3H-imidazol-4-yl)-1-carboxy-ethylamino]-4-methyl-pentanoic acid] | < 100 | > 50000 | > 50000 | > 500 |  |  |  |  | more active diastereomer |
| CC(C)CC(N[C@H](Cc1cncn1C)C(=O)O)C(=O)O (some centres unmarked) [CB, 2-[1-Carboxy-2-(3-methyl-3H-imidazol-4-yl)-ethylamino]-4-methyl-pentanoic acid] | > 500 | > 50000 | > 50000 | > 500 |  |  |  |  |  |
| NCCCC[C@H](NC(CCc1ccccc1)C(=O)O)C(=O)O (some centres unmarked) [BU, 6-Amino-2-(1-carboxy-3-phenyl-propylamino)-hexanoic acid] | > 500 | > 50000 | > 50000 | > 500 |  |  |  |  |  |
| CC(C)CC(N[C@H](Cc1cn(C)cn1)C(=O)O)C(=O)O (some centres unmarked) [CA, 2-[-Carboxy-2-(1-methyl-1H-imidazol-4-yl)-ethylamino]-4-methyl-pentanoic acid] | > 500 | > 50000 | > 50000 | > 500 |  |  |  |  |  |
| CC(C)CC(N[C@@H](Cc1c[nH]cn1)C(=O)NCC(=O)O)C(=O)O (some centres unmarked) [FD, 2-[1-(Carboxymethyl-carbamoyl)-2-(1H-imidazol-4-yl)-ethylamino]4-methyl-pentanoic acid] | > 500 | < 10000 | > 50000 | > 500 |  |  |  |  |  |
| CC(C)CC(N[C@H](Cc1cn(Cc2ccccc2)cn1)C(=O)O)C(=O)O (stereo in doubt) [CW, 2-[2-(1-Benzyl-1H-imidazol-4-yl)-1-carboxy-ethylamino]-4-methyl-pentanoic acid] | > 500 | > 50000 | > 50000 | > 500 |  |  |  |  |  |
| CC(C)CC(N[C@H](Cc1nc[nH]n1)C(=O)O)C(=O)O (some centres unmarked) [CE, 2-[1-Carboxy-2-(1H-[1,2,4]triazol-3-yl)-ethylamino]-4-methyl-pentanoic acid] | > 500 | > 50000 | > 50000 | > 500 |  |  |  |  |  |
| CC(C)CC(N[C@@H](Cc1cncn1COCc1ccccc1)C(=O)O)C(=O)O (single isomer, unassigned) [EN, 2-[2-(3-Benzyloxymethyl-3H-imidazol-4-yl)-1-carboxy-ethylamino]-4-methyl-pentanoic acid] | 100 to 500 | > 50000 | > 50000 | 100 to 500 |  |  |  |  |  |
| CC(C)(C)C[C@H](N[C@@H](CCc1ccccc1)C(=O)O)C(=O)O [CK, 2-(1-Carboxy-3-phenyl-propylamino)-4,4-dimethylpentanoic acid] | 100 to 500 | > 50000 | > 50000 | > 500 |  |  |  |  |  |
| CCCC(N[C@@H](Cc1c[nH]cn1)C(=O)O)C(=O)O (single isomer, unassigned) [DK, 2-[1-Carboxy-2-(1H-imidazol-4-yl)-ethylamino)pentanoic acid] | > 500 | 10000 to 50000 | > 50000 | > 500 |  |  |  |  |  |

— US7045532B2 (Millennium Pharmaceuticals, Inc., priority 1999, dated 2006)
